Data from patent US11613538B2, “Method of inhibiting or reducing a viral infection” (PTC Therapeutics, Inc., priority 2009, dated 2023).
Entries after “also recorded” stand apart in the source; their conditions may differ.

Columns and labels:
[1] = test system: VEGF production in tumor cells; test: VEGF production in tumor cells (data not shown); format: cell-based; conditions: in words
Source text: In addition to its effects on pathological VEGF production, a Compound provided herein provokes a late GI/early S-Phase cell cycle delay, i.e., between the late resting or pre-DNA synthesis phase, and the early DNA synthesis phase in those tumor cell lines in which VEGF generation is decreased by the Compound. See Section 8.3. […] The cell cycle delay and inhibition of pathological VEGF protein production occur in concert, linking these phenotypes in inflammation, pathological angiogenesis and tumor growth. […] Thus, these experiments indicate that the effects of the Compound on the tumor cell cycle occur in parallel with its actions on pathological VEGF production in tumors.

[2] = mouse, in vivo
Caki-1 cells = test: Caki-1 renal cell carcinoma xenograft (VHL-positive), tumor volume; format: in vivo, mice; conditions: for Median time for tumors to reach 1000 mm^3: Compound #10 10 mg/kg QD PO; for Median time for tumors to reach 1000 mm^3 / Tumors smaller than those in vehicle-treated mice: sunitinib 75 mg/kg QD PO, rapamycin 15 mg/kg PO; for Tumors smaller than those in vehicle-treated mice: Day 35, Compound #10 10 mg/kg QD PO
Experimental: The Caki-1 cell line expresses the von Hippel-Lindau (VHL) protein which acts as a tumor suppressor by promoting the rapid degradation of HIF-1α (hypoxia-inducible factor 1α) under normoxia. Under hypoxic conditions, HIF-1α is stabilized and activated by the inability of VHL to act resulting in increased transcription of VEGF that is responsible for the high vascularization of RCC (see Turcotte et al, 2003, Zimmer et al, 2004).
(§1) A total of 100 mice were injected, of which 60 were used in the study.
Groups were taken off study when the mean tumor volume in a group was 1300 mm^3 or more. Vehicle-treatment started on Day 0 and continued through Day 35. Compound #10-treatment started on Day 0 and continued through Day 52.
(§2) Tumors were measured twice per week using digital calipers.
[…] The median values were reported.

[3] = 786-O xenograft study: body weight and clinical observations; conditions: 786-O study
786-O cells = test: 786-O renal cell carcinoma xenograft (VHL-negative), tumor volume; format: in vivo, mice; conditions: for Median time for tumors to reach 1000 mm^3: Compound #10 10 mg/kg QD PO, time on study used if not reached; for Median time for tumors to reach 1000 mm^3 / Tumors smaller than those in vehicle-treated mice: sunitinib 75 mg/kg QD PO, rapamycin 15 mg/kg PO; for Tumors smaller than those in vehicle-treated mice: Day 57, Compound #10 10 mg/kg QD PO
Experimental: Both sunitinib and rapamycin are used clinically for treatment of renal cancer.
as §1
Groups were taken off study when the mean tumor volume in a group was 1300 mm^3 or more. Vehicle-treatment started on Day 0 and continued through Day 57. Compound #10-treatment started on Day 0 and continued through Day 88.
as §2
The time to progression to reach a tumor volume 1000 mm^3 was calculated for each mouse. The median values were reported.

[4] = Caki-1 xenograft study: body weight and clinical observations; format: in vivo, mice; conditions: Caki-1 study
Source text: Body Weight: The mice were weighed once per week.

| SMILES | Mice of the treatment group that had died or were sacrificed due to sickness [2] | Median time for tumors to reach 1000 mm^3 (Caki-1 cells) [days] | Tumors smaller than those in vehicle-treated mice (Caki-1 cells) [%] | Survival of treated mice ([3]; all mice, in words) | Body weight change from initial body weight ([3]; in words) | Median time for tumors to reach 1000 mm^3 (786-O cells) [days] | Tumors smaller than those in vehicle-treated mice (786-O cells) [%] | Body weight change from initial body weight ([4]; in words) | Individual mice found dead or sacrificed ([4]; in words) | further results |
| --- | --- | --- | --- | --- | --- | --- | --- | --- | --- | --- |
| NC(Cn1ccc(=O)c(O)c1)C(=O)O (stereo not drawn) [mimosine] |  |  |  |  |  |  |  |  |  | Effect on VEGF production [1]: does not reduce VEGF production |
| CO[C@H]1C[C@@H]2CC[C@@H](C)[C@@](O)(O2)C(=O)C(=O)N2CCCC[C@H]2C(=O)O[C@H]([C@H](C)C[C@@H]2CC[C@@H](O)[C@H](OC)C2)CC(=O)[C@H](C)/C=C(\C)[C@@H](O)[C@@H](OC)C(=O)[C@H](C)C[C@H](C)/C=C/C=C/C=C/1C [rapamycin] | 1 of the 10 mice | 43 | 60 | survived until sacrificed | transiently lost weight | 87 | 49 | transiently lost weight | found dead on Day 14; also recorded: found dead on Day 62; also recorded: found dead on Day 63 | Tumor size (mean±SD) (Caki-1 cells; Day 63, 15 mg/kg PO): 1689±1081 mm^3; Body weight loss ([3]; Day 7): 2.4%; Body weight loss ([3]; Day 14): 2.8%; Tumor size (mean±SD) (786-O cells; Day 93, 15 mg/kg PO): 1715±393 mm^3; Body weight loss ([4]; Day 8): 4.3%; Body weight loss ([4]; Day 14): 5.8%; Mice of the treatment group that had died ([4]; by Day 65): 6 of the 10 mice |
| CCN(CC)CCNC(=O)c1c(C)[nH]c(/C=C2\C(=O)Nc3ccc(F)cc32)c1C [sunitinib] | 1 of the 10 mice | 66 | 66 | survived until sacrificed | transiently lost weight | 119 | 83 | transiently lost weight | sacrificed on Day 4; also recorded: found dead on Day 17; also recorded: found dead on Day 95 | Tumor size (mean±SD) (Caki-1 cells; Day 98, 75 mg/kg QD, PO): 1494±1150 mm^3; Clinical observation: skin ([3]; from Day 7 onward, all mice, in words): yellow-tinged skin; Tumor size (mean±SD) (786-O cells; Day 119, 75 mg/kg QD, PO): 709938 mm^3; Clinical observation: skin ([4]; from Day 8 onward, all mice, in words): yellow-tinged skin |
